Structures are written as SMILES. The source made the active and inactive calls. No cut-off for these calls is given here.

Data set [1] in a line: Partition coefficient, log P of the compound. In kind it is physicochemical. To be noted: octanol/water.
Data set [2] concerns Plasmodium berghei (mouse). As to the kind of experiment: Antimalarial activity against chloroquine-sensitive Plasmodium berghei infected mouse assessed as survival at 30 mg/kg, po.
Data set [3] in a line: Half life in mouse whole blood. Type of data set: ADME, tissue-based.
Data set [4] can be described thus: AUC (0 to 24 hrs) in mouse at 30 mg/kg, po by LC-MS analysis. In kind it is ADME, organism-based. The arrangement: time < 24 hr, dose 30 mg/kg, route oral. To be noted: plasma.
Data set [5] has as its system Plasmodium berghei (mouse). As to the kind of experiment: Antimalarial activity against chloroquine-sensitive Plasmodium berghei infected mouse assessed as cured animal at 30 mg/kg, po measured on day 30 postinfection.
The nature of data set [6]: Intrinsic clearance in mouse liver microsomes at 1 uM after 60 mins by LC-MS analysis. In kind it is ADME, Microsome. The settings on record: read-out: CLH.
Data set [7] is described as follows: Dissociation constant, pKa of the compound. In kind it is physicochemical.
A short description of data set [8]: Plasma concentration in Swiss outbred mouse at 30 mg/kg, po at 24 hrs by LC-MS analysis. Type of data set: ADME, organism-based. The arrangement: dose 30 mg/kg, route oral.
Data set [9] is described as follows: Lipophilicity, log D of the compound at pH 7.4. In kind it is physicochemical. To be noted: buffer.
Data set [10] concerns Plasmodium falciparum. The data set can be described thus: microbe, parasite or virus in culture. To be noted: K1.
The subject of data set [11] is Plasmodium falciparum. As to the kind of experiment: animal or person. The settings on record: NF54.
The test system of data set [12] is Plasmodium falciparum. The data set can be described thus: Antimalarial activity against chloroquine-sensitive Plasmodium falciparum NF54 infected mouse assessed as reduction in parasitemia at 30 mg/kg, po measured on day 3 postinfection relative to control. Type of data set: functional. The arrangement: scale not given: the % may be the effect or the level left.

A word on the logP: it is a log measure of how a compound divides between an organic and an aqueous phase. Broadly, the half-life is how long it takes for the measured level to halve. One may read the AUC(0-t) as the area under the concentration-time curve up to a stated or last time point. For orientation: pKa means the negative logarithm of the acid dissociation constant. One may read the logD as the decadic logarithm of the distribution of all forms, ionised or not, between an organic phase and buffer at a given pH. One may read the IC50 as the concentration that gives 50% inhibition. `CC(C)(N)CNC(=O)CC1CCC2(CC1)COC1(OO2)C2CC3CC(C2)CC1C3` (configuration not stated) showed a lipophilicity (logP) in data set [1] of 2.44. The Survival in [2] was determined as 15 days. For the same molecule, in data set [3], the half-life was 138 min. Also, in data set [4], the AUC(0-t) at 24 h is 22.4 µM·h. The outcome in data set [5] was inactive. The microsomal CLint at 1 µM in [6] is under 7 µL/min/mg. The pKa in data set [7] is 9.05. The molecule also registered a concentration at 24 h in data set [8] of over 10 ng/mL. The logD in data set [9] was found to be 1.05. Moreover, the IC50 came out at 19 nM with Plasmodium falciparum [10] and 29 nM in the data set on Plasmodium falciparum [11]. In addition, the Activity in the data set on Plasmodium falciparum [12] stood at 99.1%.

As to `C[C@H]1[C@H](OC(=O)CCC(=O)O)O[C@@H]2O[C@@]3(C)CC[C@H]4[C@H](C)CC[C@@H]1[C@@]24OO3` [ARTESUNATE], the Survival in [2] came out at 9 days. For the same molecule, the result in data set [5] was inactive. Further, the Activity with Plasmodium falciparum [12] was determined as 92%.

In data set [1], `CC(C)(N)CNC(=O)C[C@H]1CC[C@]2(CC1)OO[C@]1(O2)C2CC3CC(C2)CC1C3` [OZ277] came in with a logP of 2.07. For the same molecule, the Survival in data set [2] amounted to 11 days. This molecule gave a half-life in [3] of 55.8 min. The same molecule returned an area under the curve AUC(0-t) at 24 h in [4] of 5.13 µM·h. Moreover, in [5], the outcome was inactive. For the same molecule, the microsomal CLint at 1 µM in [6] was 17 µL/min/mg. The molecule also yielded a pKa in [7] of 9.05. Besides, the concentration at 24 h in data set [8] was under 1 ng/mL. Also, the logD in data set [9] came out at 0.69. Further, the Activity in the data set on Plasmodium falciparum [12] was found to be 99.9%.

Take `O[C@@H](c1cc(C(F)(F)F)nc2c(C(F)(F)F)cccc12)[C@H]1CCCCN1` (relative stereo) [(S,R)-MEFLOQUINE]: the Survival in data set [2] turned out to be 22 days. Also, the outcome in data set [5] was inactive. In addition, the concentration for half-maximal inhibition (IC50) worked out at 7.2 nM with Plasmodium falciparum [10] and 14 nM in the data set on Plasmodium falciparum [11]. Besides, the Activity in the data set with Plasmodium falciparum [12] worked out at 99.6%.

For `CCN(CC)CCCC(C)Nc1ccnc2cc(Cl)ccc12` (configuration not stated) [CHLOROQUINE], in data set [2], the Survival came out at 10 days. Besides, the outcome in [5] was inactive.

In data set [1], `CC(C)(N)CNC(=O)C[C@H]1CC[C@@]2(CC1)C[C@@]1(OO2)C2CC3CC(C2)CC1C3` returned a log partition coefficient (logP) of 3.21. In [3], this molecule had a half-life of 60 min. The microsomal CLint at 1 µM in data set [6] was 12 µL/min/mg. This molecule also yielded a pKa in data set [7] of 9.05. Moreover, the logD in data set [9] was 1.83. Moreover, the values for the IC50 with Plasmodium falciparum [10] and with Plasmodium falciparum [11] were 170 nM and 440 nM, respectively.

For `c1cc([C@H]2CC[C@@]3(CC2)C[C@@]2(OO3)C3CC4CC(C3)CC2C4)ccc1OCCN1CCOCC1`, the logP in data set [1] was found to be 5.66. Also, the microsomal CLint at 1 µM in [6] is 28 µL/min/mg. Moreover, in data set [7], the pKa came to 6.82. The molecule further gave a logD in [9] of 5.56. Moreover, the IC50 was 370 nM in the data set on Plasmodium falciparum [10] and 1200 nM with Plasmodium falciparum [11].

Molecule `c1cc([C@H]2CC[C@]3(CC2)OO[C@]2(O3)C3CC4CC(C3)CC2C4)ccc1OCCN1CCOCC1` [ARTEFENOMEL] gave a lipophilicity (logP) in data set [1] of 4.63. Also, in data set [2], the Survival is over 30 days. In data set [4], this molecule displayed an area under the curve AUC(0-t) at 24 h of 52.7 µM·h. Further, the result in data set [5] was Active. Also, the pKa in data set [7] stood at 6.81. The molecule further displayed a concentration at 24 h in data set [8] of over 200 ng/mL. Also, the logD in data set [9] was 4.53. Moreover, the IC50 in the data set with Plasmodium falciparum [10] was 2.8 nM; with Plasmodium falciparum [11], 3.4 nM. Further, the Activity in the data set on Plasmodium falciparum [12] is on record as over 99.9%.

`CC(C)(N)CNC(=O)CC1CCC2(CC1)OOC1(OO2)C2CC3CC(C2)CC1C3` (configuration not stated) showed a logP in [1] of 2.26. In addition, the Survival in data set [2] worked out at 9 days. For the same molecule, the half-life in [3] was 54.6 min. The AUC(0-t) at 24 h in [4] was found to be 13.5 µM·h. The result in [5] was inactive. Further, in data set [6], the microsomal CLint at 1 µM was 14 µL/min/mg. The same molecule displayed a pKa in data set [7] of 9.05. The same molecule displayed a concentration at 24 h in data set [8] of under 1 ng/mL. The molecule further gave a log distribution coefficient (logD) in data set [9] of 0.87. The 50% inhibitory concentration (IC50) amounted to 0.9 nM with Plasmodium falciparum [10] and 1.7 nM in the data set with Plasmodium falciparum [11]. In addition, the Activity with Plasmodium falciparum [12] came to 99.5%.
